# Laboratory results from ChEMBL document CHEMBL1135388, “Design and synthesis of pyrrolidine-5,5-trans-lactams (5-oxohexahydropyrrolo[3,2-b]pyrroles) as novel mechanism-based inhibitors of human cytomegalovirus protease. 2. Potency and chirality” (J Med Chem, 2002).
# Molecular target: Acetylcholinesterase (Homo sapiens, UniProt P22303)
# Assay: Concentration required for 50% Acetylcholinesterase inhibition
# Sequence of Acetylcholinesterase (P22303 whole entry): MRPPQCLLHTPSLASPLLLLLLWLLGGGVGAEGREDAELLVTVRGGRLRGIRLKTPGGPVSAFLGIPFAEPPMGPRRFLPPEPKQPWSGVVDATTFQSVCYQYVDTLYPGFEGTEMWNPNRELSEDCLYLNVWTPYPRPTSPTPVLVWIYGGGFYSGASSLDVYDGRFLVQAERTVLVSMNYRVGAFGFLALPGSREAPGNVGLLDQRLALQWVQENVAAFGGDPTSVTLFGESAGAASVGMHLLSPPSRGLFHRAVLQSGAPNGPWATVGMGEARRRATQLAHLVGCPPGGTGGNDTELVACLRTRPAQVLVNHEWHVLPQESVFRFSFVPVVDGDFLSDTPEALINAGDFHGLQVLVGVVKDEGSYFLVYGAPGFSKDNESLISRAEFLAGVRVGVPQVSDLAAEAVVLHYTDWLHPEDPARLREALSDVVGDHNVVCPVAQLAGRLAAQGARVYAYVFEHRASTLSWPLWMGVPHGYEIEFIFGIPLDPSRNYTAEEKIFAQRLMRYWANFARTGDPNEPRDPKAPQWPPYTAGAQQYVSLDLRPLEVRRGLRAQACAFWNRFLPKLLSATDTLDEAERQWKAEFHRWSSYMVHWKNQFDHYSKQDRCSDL
row,Structure (SMILES),IC50 [µM]
1,C[C@@H]1C(=O)N(C(=O)C2CC2)[C@H]2CCN(C(=O)[C@@H]3CCCN3S(=O)(=O)c3cccc4c(N(C)C)cccc34)[C@H]12,> 100
2,CC(=O)N1C(=O)[C@@H](C)[C@@H]2[C@@H]1CCN2C(=O)[C@@H]1CCCN1S(=O)(=O)c1cccc2c(N(C)C)cccc12,> 100

# Molecular target: Prothrombin (Homo sapiens, UniProt P00734)
# Assay: Concentration required for 50% thrombin inhibition
row,Structure (SMILES),IC50 [µM]
1,C[C@@H]1C(=O)N(C(=O)C2CC2)[C@H]2CCN(C(=O)[C@@H]3CCCN3S(=O)(=O)c3cccc4c(N(C)C)cccc34)[C@H]12,> 200
2,CC(=O)N1C(=O)[C@@H](C)[C@@H]2[C@@H]1CCN2C(=O)[C@@H]1CCCN1S(=O)(=O)c1cccc2c(N(C)C)cccc12,> 200

# Molecular target: not listed separately
# Assay: Concentration required for 50% elastase inhibition
row,Structure (SMILES),IC50 [µM]
1,C[C@@H]1C(=O)N(C(=O)C2CC2)[C@H]2CCN(C(=O)[C@@H]3CCCN3S(=O)(=O)c3cccc4c(N(C)C)cccc34)[C@H]12,> 10
2,CC(=O)N1C(=O)[C@@H](C)[C@@H]2[C@@H]1CCN2C(=O)[C@@H]1CCCN1S(=O)(=O)c1cccc2c(N(C)C)cccc12,> 10

# Molecular target: T1, Capsid scaffolding protein (Human cytomegalovirus (strain AD169) (HHV-5) (Human herpesvirus 5), UniProt P16753)
# T1 sequence (P16753 whole entry): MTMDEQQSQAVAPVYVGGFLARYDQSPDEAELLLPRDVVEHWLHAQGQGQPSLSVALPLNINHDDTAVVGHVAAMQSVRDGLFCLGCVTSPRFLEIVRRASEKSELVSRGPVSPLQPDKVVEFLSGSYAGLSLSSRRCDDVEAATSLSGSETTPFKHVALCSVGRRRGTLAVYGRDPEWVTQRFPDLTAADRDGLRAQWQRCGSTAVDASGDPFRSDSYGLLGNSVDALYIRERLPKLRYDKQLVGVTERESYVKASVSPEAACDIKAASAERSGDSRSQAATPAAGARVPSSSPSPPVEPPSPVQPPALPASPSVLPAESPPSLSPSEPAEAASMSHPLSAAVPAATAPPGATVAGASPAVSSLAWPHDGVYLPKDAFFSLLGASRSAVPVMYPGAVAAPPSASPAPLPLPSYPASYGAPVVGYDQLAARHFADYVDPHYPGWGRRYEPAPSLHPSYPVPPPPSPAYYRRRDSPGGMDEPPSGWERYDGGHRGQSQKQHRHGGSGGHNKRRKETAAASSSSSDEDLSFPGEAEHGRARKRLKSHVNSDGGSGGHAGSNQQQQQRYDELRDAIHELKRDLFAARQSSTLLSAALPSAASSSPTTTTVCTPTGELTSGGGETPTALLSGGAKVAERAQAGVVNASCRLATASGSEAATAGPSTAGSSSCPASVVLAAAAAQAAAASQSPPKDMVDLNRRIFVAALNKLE
# Assay: Concentration required for inhibition of human cytomegalo virus (HCMV) protease activity.
# Parameters: species or system Human herpesvirus 5 strain AD169
row,Structure (SMILES),IC50 [µM]
1,C[C@@H]1C(=O)N(C(=O)C2[C@@H](C)[C@H]2C)[C@H]2CCN(C(=O)OCc3ccccc3)C12 (some centres undefined),72
2,C[C@@H]1C(=O)N(C(=O)C2[C@@H](C)[C@@H]2C)[C@H]2CCN(C(=O)OCc3ccccc3)C12 (some centres undefined),> 100
3,C[C@@H]1C(=O)N(C(=O)C2Cc3ccccc32)[C@H]2CCN(C(=O)OCc3ccccc3)C12 (some centres undefined),11.5
4,CC1CC1C(=O)N1C(=O)[C@@H](C)C2[C@@H]1CCN2C(=O)OCc1ccccc1 (some centres undefined),10
5,CC(=O)N1C(=O)[C@@H](C)[C@@H]2[C@@H]1CCN2C(=O)[C@@H]1CCCN1C(=O)c1ccccc1,50
6,C[C@@H]1C(=O)N(C(=O)C2CC2)[C@H]2CCN(C(=O)[C@@H]3CCCN3S(=O)(=O)Cc3cccc(N(C)C)c3)[C@H]12,2.2
7,CC(=O)N1C(=O)[C@@H](C)C2[C@@H]1CCN2CC(=O)Cc1ccccc1 (some centres undefined),79
8,C[C@H]1C(=O)N(C(=O)C2CC2)[C@@H]2CCN(C(=O)CN(C)S(=O)(=O)c3cccc4c(N(C)C)cccc34)[C@H]21,> 100
9,C[C@@H]1C(=O)N(C(=O)C2CC2)[C@H]2CCN(C(=O)[C@@H]3CCCN3S(=O)(=O)c3cccc(C(=O)N(C)C)c3)[C@H]12,1.4
10,C[C@@H]1C(=O)N(CC(O)COc2ccccc2)[C@H]2CCN(C(=O)OCc3ccccc3)C12 (some centres undefined),> 500
11,CC(=O)N1C(=O)[C@H](C)[C@H]2[C@H]1CCN2C(=O)[C@@H]1CCCN1S(=O)(=O)c1ccc(C)cc1,159
12,CC(=O)N1C(=O)[C@@H](C)[C@@H]2[C@@H]1CCN2C(=O)[C@@H]1CCCN1S(=O)(=O)c1cccc2c(N(C)C)cccc12,0.54
13,CC(C)Oc1cccc(S(=O)(=O)N2CCC[C@H]2C(=O)N2CC[C@H]3[C@H]2[C@H](C)C(=O)N3C(=O)C2CC2)c1,65
14,CC(NS(=O)(=O)c1cccc2c(N(C)C)cccc12)C(=O)N1CC[C@@H]2[C@@H]1[C@@H](C)C(=O)N2C(=O)C1CC1 (some centres undefined),7
15,Cc1ccc(S(=O)(=O)N2CCCC2C(=O)N2CC[C@H]3C2[C@H](C)C(=O)N3C=O)cc1 (some centres undefined),14
16,CC(=O)N1C(=O)[C@H](C)[C@H]2[C@H]1CCN2C(=O)[C@@H]1CCCN1S(=O)(=O)c1ccc([N+](=O)[O-])cc1,11
17,CC(=O)N1C(=O)[C@@H](C)C2[C@@H]1CCN2S(=O)(=O)CCc1ccccc1 (some centres undefined),45
18,C[C@@H]1C(=O)N(C(=O)C2CC2)[C@H]2CCN(C(=O)OCc3ccccc3)C12 (some centres undefined),9
19,COc1ccc(C(=O)N2C(=O)[C@@H](C)C3[C@@H]2CCN3C(=O)OCc2ccccc2)cc1 (some centres undefined),> 500
20,CC(=O)N1C(=O)[C@H](C)[C@H]2[C@H]1CCN2C(=O)[C@@H]1CCCN1C(=O)c1ccccc1,> 500
21,CC(=O)N1C(=O)[C@H](C)[C@H]2[C@H]1CCN2C(=O)[C@@H]1CCCN1S(=O)(=O)c1cccc2c(N(C)C)cccc12,> 500
22,C[C@H]1C(=O)N(C(=O)C2CC2)[C@@H]2CCN(C(=O)C3CCCCN3S(=O)(=O)c3cccc4c(N(C)C)cccc34)[C@H]21 (some centres undefined),13
23,C[C@@H]1C(=O)N(C=O)[C@H]2CCN(C(=O)OCc3ccccc3)C12 (some centres undefined),398
24,CC(=O)N1C(=O)[C@@H](C)C2[C@@H]1CCN2C(=O)COc1ccccc1 (some centres undefined),63
25,C[C@@H]1C(=O)N(C(=O)C2C(C)(C)C2(C)C)[C@H]2CCN(C(=O)OCc3ccccc3)C12 (some centres undefined),> 500

# Molecular target: T1, Capsid scaffolding protein
# Assay: Inhibition of Human cytomegalo virus(HCMV) protease activity measured by HPLC assay
# Parameters: species or system Human herpesvirus 5 strain AD169
row,Structure (SMILES),IC50 [µM]
1,CC(=O)N1C(=O)[C@@H](C)C2[C@@H]1CCN2C(=O)C(=O)c1cccn1C (some centres undefined),5
2,CC(C)C(=O)N1C(=O)[C@@H](C)C2[C@@H]1CCN2C(=O)OCc1ccccc1 (some centres undefined),126
3,C[C@@H]1C(=O)N(C(=O)C(C)(C)C)[C@H]2CCN(C(=O)OCc3ccccc3)C12 (some centres undefined),> 500
4,CC(=O)OCC(=O)N1C(=O)C(C)C2C1CCN2C(=O)OCc1ccccc1 (centres undefined),13
5,CC(=O)OCC(=O)N1C(=O)[C@@H](C)C2[C@@H]1CCN2C(=O)OCc1ccccc1 (some centres undefined),6
6,CC(=O)N1C(=O)[C@@H](C)C2[C@@H]1CCN2C(=O)Cc1c(C)[nH]c2ccc(F)cc12 (some centres undefined),6
7,C[C@@H]1C(=O)N(C(=O)C2CCC2)[C@H]2CCN(C(=O)OCc3ccccc3)C12 (some centres undefined),32
8,C[C@@H]1C(=O)N(C(=O)CCO)[C@H]2CCN(C(=O)OCc3ccccc3)C12 (some centres undefined),133
